Tests used:
myeloperoxidase [1] = molecular target: T1, myeloperoxidase (Homo sapiens (Human), UniProt P05164); experiment: MPO Peroxidation Assay (Amplex Red Assay); type: biochemical; details: MPO peroxidation activity, 100 mM KPi (pH 7.4), ten minute preincubation; potency ranges defined in nM
Description: MPO Peroxidation Assay (Amplex Red Assay)
MPO peroxidation activity was measured in 100 mM KPi (pH 7.4) by utilizing the non-fluorescent reagent Amplex Red (Invitrogen Cat. #A12222) which can be oxidized to the highly fluorescent resorufin. Amplex Red is oxidized by the peroxidase action of MPO to resorufin. Reactions were carried out in 50 μL total volume by adding a 25 μL mixture of 200 pM myeloperoxidase and 40 nM H2O2 (Sigma #349887) to 100 nL inhibitor in 100% DMSO in a 384 well Perkin Elmer Optiplate. Enzyme and compound were preincubated for ten minutes at room temperature.
After the ten minute preincubation, 25 μL of an Amplex Red mixture containing 200 μM Amplex Red and 10 mM H2O2 was added to the plate. Kinetic determinations were carried out immediately on a Perkin Elmer Envision (15 minute kinetic read, Ex: 535 nm, Em: 590 nm).
(§1) IC50 values were calculated by determining the slope of the linear portion of the kinetic trace (180-540 secs), and using that calculated slope to determine % inhibition occurring at each concentration of inhibitor using the following equation:
(§2) [formula] where A=minimal Y value (activity level of inhibited sample), B=maximal Y value (activity level of uninhibited sample), C=Log IC50, D=Hill Slope, x=concentration of inhibitor. MPO Chlorination Assay (APF Assay) MPO chlorination activity was measured in 100 mM KPi (pH 7.4) by utilizing the non-fluorescent reagent Aminophenyl fluorescein (APF, Invitrogen Cat. #A36003). APF is cleaved by (—OCl) to yield the fluorescent compound fluorescein. Reactions were carried out in 50 μL total volume by adding a 25 μL mixture of 200 pM myeloperoxidase and 120 mM NaCl to 100 nL inhibitor in 100% DMSO in a 384 well, non-binding surface clear bottom plate (Corning #3655). Enzyme, inhibitor, and chloride were preincubated for ten minutes at room temperature.

myeloperoxidase [2] = molecular target: T1, myeloperoxidase; experiment: MPO Chlorination Assay (APF Assay); type: biochemical; details: MPO chlorination activity, 100 mM KPi (pH 7.4), 120 mM NaCl, ten minute preincubation; potency ranges defined in nM
Description: as §2
After the ten minute preincubation, 25 μL of an APF mixture containing […], 120 mM NaCl and 10 μM H2O2 was added to the plate using the internal dispensing system of a Hammatsu FDSS 6000. Kinetic determinations were carried out immediately on the FDSS 6000 (3 minute kinetic read, 1 read every second, ex: 485 nm, em: 535 nm). IC50 values for inhibitors were calculated by taking the slope of the linear portion of the kinetic measurement (20 seconds to 80-120 secs).
as §1
[formula] where A=minimal Y value (activity level of inhibited sample), B=maximal Y value (activity level of uninhibited sample), C=Log IC50, D=Hill Slope, x=concentration of inhibitor. EPX Bromination Assay

T1 sequence (P05164 49-745): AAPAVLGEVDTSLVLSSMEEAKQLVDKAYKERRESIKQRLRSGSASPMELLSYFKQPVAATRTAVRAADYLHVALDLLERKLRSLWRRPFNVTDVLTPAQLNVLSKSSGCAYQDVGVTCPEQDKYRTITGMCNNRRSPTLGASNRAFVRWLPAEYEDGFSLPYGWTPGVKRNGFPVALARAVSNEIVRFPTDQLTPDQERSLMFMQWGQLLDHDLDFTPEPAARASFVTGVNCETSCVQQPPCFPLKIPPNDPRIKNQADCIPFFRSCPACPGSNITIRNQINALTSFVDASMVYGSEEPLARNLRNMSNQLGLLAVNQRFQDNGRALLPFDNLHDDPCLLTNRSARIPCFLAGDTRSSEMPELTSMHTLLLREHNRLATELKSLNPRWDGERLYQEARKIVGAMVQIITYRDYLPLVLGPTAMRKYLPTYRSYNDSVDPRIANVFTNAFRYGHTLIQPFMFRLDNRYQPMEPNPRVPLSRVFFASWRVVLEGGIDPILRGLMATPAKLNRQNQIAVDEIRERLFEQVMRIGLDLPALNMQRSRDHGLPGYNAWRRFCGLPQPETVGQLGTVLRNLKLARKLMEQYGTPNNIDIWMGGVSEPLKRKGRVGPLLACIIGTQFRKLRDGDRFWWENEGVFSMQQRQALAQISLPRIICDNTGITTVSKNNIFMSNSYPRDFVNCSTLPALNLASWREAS

SMILES	IC50 (myeloperoxidase [1]) [nM]	IC50 (myeloperoxidase [2]) [nM]
Nc1cc(C2CCNC34CCC(c5ccccc5)(CC3)[C@@H](C4)Oc3cccc(c3)Cn3cc2cn3)c2nn[nH]c2n1 (stereo partly drawn) [Example 28, 7-[(17R)-18-Phenyl-16-oxa-2,8,9-triazapentacyclo[16.2.2.1^1,^1^7.1^6,^9.1^11,^1^5]pentacosa-6(25),7,11(24),12,14-pentaen-5-yl]-3H-[1,2,3]triazolo[4,5-b]pyridin-5-amine]	1000 to 10000	1 to 100
Nc1cc(C2CCNCc3cc(cc(OC(F)(F)F)c3)COc3cccc(c3)Cn3cc2cn3)c2nn[nH]c2n1 (stereo not shown) [Example 23, 7-[14-(Trifluoromethoxy)-18-oxa-3,4,10-triazatetracyclo[17.3.1.1^3,^6.1^12,^1^6]pentacosa-1(23),4,6(25),12,14,16(24),19,21-octaen-7-yl]-3H-[1,2,3]triazolo[4,5-b]pyridin-5-amine]	1000 to 10000	101 to 999
Nc1cc(C2CCN3C[C@H](COc4cccc(c4)Cn4cc2cn4)[C@@H](c2ccccc2)C3)c2nn[nH]c2n1 (stereo partly drawn) [Example 34, 7-[(12S,13R)-12-Phenyl-15-oxa-3,4,10-triazatetracyclo[14.3.1.1^3,^6.1^1^0,^13]docosa-1(20),4,6(22),16,18-pentaen-7-yl]-3H-[1,2,3]triazolo[4,5-b]pyridin-5-amine]	1000 to 10000	101 to 999
C[C@H]1Oc2cccc(c2)Cn2cc(cn2)C(c2cc(N)nc3[nH]nnc23)CCNCc2cccc1c2 (stereo partly drawn) [Example 10, 7-[(17R)-17-Methyl-18-oxa-3,4,10-triazatetracyclo[17.3.1.1^3,^6.1^12,^16]pentacosa-1(23),4,6(25),12,14,16(24),19,21-octaen-7-yl]-3H-[1,2,3]triazolo[4,5-b]pyridin-5-amine]	101 to 999	1 to 100
Nc1cc(C2CCNCc3cccc(c3)Oc3cccc(c3)Cn3cc2cn3)c2nn[nH]c2n1 (stereo not shown) [Example 1, 7-{17-oxa-3,4,10-triazatetracyclo[16.3.1.1^3,^6.1^12,^1^6]tetracosa-1(22),4,6(24),12,14,16(23),18,20-octaen-7-yl}-3H-[1,2,3]triazolo[4,5-b]pyridin-5-amine]	101 to 999	1 to 100
Nc1cc(C2CCNC34CCC(c5ccccc5)(CC3)[C@H](C4)Oc3cccc(c3)CCn3cc2cn3)c2nn[nH]c2n1 (stereo partly drawn) [Example 29, 7-[(18S)-19-Phenyl-17-oxa-2,8,9-triazapentacyclo[17.2.2.1^1,^1^8.1^6,^9.1^12,^1^6]hexacosa-6(26),7,12(25),13,15-pentaen-5-yl]-3H-[1,2,3]triazolo[4,5-b]pyridin-5-amine]	1 to 100	1 to 100
Nc1cc(C2CCN[C@H]3CC[C@@H](COc4cccc(c4)Cn4cc2cn4)C3)c2nn[nH]c2n1 (stereo partly drawn) [Example 32, 7-[(11S,14R)-16-Oxa-3,4,10-triazatetracyclo[15.3.1.1^3,^6.1^11,^1^4]tricosa-1(21),4,6(23),17,19-pentaen-7-yl]-3H-[1,2,3]triazolo[4,5-b]pyridin-5-amine]	101 to 999	1 to 100
Nc1cc(C2CCNCc3cc(F)cc(c3)OCc3cccc(c3)Cn3cc2cn3)c2nn[nH]c2n1 (stereo not shown) [Example 12, 7-{14-Fluoro-17-oxa-3,4,10-triazatetracyclo[17.3.1.1^3,^6.1^12,^1^6]pentacosa-1(23),4,6(25),12(24),13,15,19,21-octaen-7-yl}-3H-[1,2,3]triazolo[4,5-b]pyridin-5-amine]	1 to 100	1 to 100
Nc1cc(C2CCNCC3(CCCC3)COc3cccc(c3)Cn3cc2cn3)c2nn[nH]c2n1 (stereo not shown) [Example 22, 7-{14′-Oxa-3′,4′,10′-triazaspiro[cyclopentane-1,12′-tricyclo[13.3.1.1^3,^6]icosane]-1′(19′),4′,6′(20′),15′,17′-pentaen-7′-yl}-3H-[1,2,3]triazolo[4,5-b]pyridin-5-amine]	101 to 999	1 to 100
Nc1cc(C2CCNCc3ccc(F)c(c3)OCc3cccc(c3)Cn3cc2cn3)c2nn[nH]c2n1 (stereo not shown) [Example 14, 7-{15-Fluoro-17-oxa-3,4,10-triazatetracyclo[17.3.1.1^3,^6.1^12,^1^6]pentacosa-1(23),4,6(25),12(24),13,15,19,21-octaen-7-yl}-3H-[1,2,3]triazolo[4,5-b]pyridin-5-amine]	1000 to 10000	1 to 100
Nc1cc(C2CCNCC(F)(F)c3cccc(c3)Oc3cccc(c3)Cn3cc2cn3)c2nn[nH]c2n1 (stereo not shown) [Example 36, 7-{12,12-Difluoro-18-oxa-3,4,10-triazatetracyclo[17.3.1.1^3,^6.1^13,^1^7]pentacosa-1(23),4,6(25),13,15,17(24),19,21-octaen-7-yl}-3H-[1,2,3]triazolo[4,5-b]pyridin-5-amine]	1000 to 10000	1 to 100
COc1ccc2cc1OCc1cccc(c1)Cn1cc(cn1)C(c1cc(N)nc3[nH]nnc13)CCNC2 (stereo not shown) [Example 13, 7-{15-Methoxy-17-oxa-3,4,10-triazatetracyclo[17.3.1.1^3,^6.1^12,^1^6]pentacosa-1(23),4,6(25),12(24),13,15,19,21-octaen-7-yl}-3H-[1,2,3]triazolo[4,5-b]pyridin-5-amine]	1000 to 10000	101 to 999
Nc1cc(C2CCNCc3cc(Cl)cc(c3)OCc3cccc(c3)Cn3cc2cn3)c2nn[nH]c2n1 (stereo not shown) [Example 15, 7-{14-Chloro-17-oxa-3,4,10-triazatetracyclo[17.3.1.1^3,^6.1^12,^1^6]pentacosa-1(23),4,6(25),12(24),13,15,19,21-octaen-7-yl}-3H-[1,2,3]triazolo[4,5-b]pyridin-5-amine]	101 to 999	1 to 100
Nc1cc(C2CCNCCc3cccc(c3)Oc3cccc(c3)Cn3cc2cn3)c2nn[nH]c2n1 (single isomer, unassigned) [Example 4, 7-{18-oxa-3,4,10-triazatetracyclo[17.3.1.1^3,^6.1^13,^1^7]pentacosa-1(23),4,6(25),13,15,17(24),19,21-octaen-7-yl}-3H-[1,2,3]triazolo[4,5-b]pyridin-5-amine]	101 to 999	101 to 999
Nc1cc(C2CCNCCc3cccc(c3)OCc3cccc(c3)Cn3cc2cn3)c2nn[nH]c2n1 (stereo not shown) [Example 16, 7-{18-Oxa-3,4,10-triazatetracyclo[18.3.1.1^3,^6.1^13,^1^7]hexacosa-1(24),4,6(26),13(25),14,16,20,22-octaen-7-yl}-3H-[1,2,3]triazolo[4,5-b]pyridin-5-amine]	101 to 999	1 to 100
Nc1cc(C2CCNCCCOc3cccc(c3)Cn3cc2cn3)c2nn[nH]c2n1 (stereo not shown) [Example 17, 7-{14-Oxa-3,4,10-triazatricyclo[13.3.1.1^3,^6]icosa-1(19),4,6(20),15,17-pentaen-7-yl}-3H-[1,2,3]triazolo[4,5-b]pyridin-5-amine]	1000 to 10000	101 to 999
Nc1cc(C2CCNCC3(CC3)COc3cccc(c3)Cn3cc2cn3)c2nn[nH]c2n1 (single isomer, unassigned) [Example 21, 7-{14′-Oxa-3′,4′,10′-triazaspiro[cyclopropane-1,12′-tricyclo[13.3.1.1^3,^6]icosane]-1′(19′),4′,6′(20′),15′,17′-pentaen-7′-yl}-3H-[1,2,3]triazolo[4,5-b]pyridin-5-amine]	101 to 999	1 to 100
CN1CCC(c2cc(N)nc3[nH]nnc23)c2cnn(c2)Cc2cccc(c2)Oc2cccc(c2)C1 (stereo not shown) [Example 6, 7-{10-methyl-17-oxa-3,4,10-triazatetracyclo[16.3.1.1^3,^6.1^12,^1^6]tetracosa-1(22),4,6(24),12,14,16(23),18,20-octaen-7-yl}-3H-[1,2,3]triazolo[4,5-b]pyridin-5-amine]	1000 to 10000	101 to 999
Nc1cc(C2CCNCc3ccc(F)c(c3)COc3ccc(F)c(c3)Cn3cc2cn3)c2nn[nH]c2n1 (stereo not shown) [Example 24, 7-{15,22-Difluoro-18-oxa-3,4,10-triazatetracyclo[17.3.1.1^3,^6.1^12,^1^6]pentacosa-1(23),4,6(25),12,14,16(24),19,21-octaen-7-yl}-3H-[1,2,3]triazolo[4,5-b]pyridin-5-amine]	101 to 999	1 to 100
C[C@@H]1Cc2cccc(c2)Oc2cccc(c2)Cn2cc(cn2)C(c2cc(N)nc3[nH]nnc23)CCN1 (stereo partly drawn) [Example 8, 7-[(11R)-11-Methyl-18-oxa-3,4,10-triazatetracyclo[17.3.1.1^3,^6.1^13,^1^7]pentacosa-1(23),4,6(25),13,15,17(24),19,21-octaen-7-yl]-3H-[1,2,3]triazolo[4,5-b]pyridin-5-amine]	101 to 999	1 to 100
